Experimental findings from ChEMBL document CHEMBL3758169, “4-Aminoindazolyl-dihydrofuro[3,4-d]pyrimidines as non-covalent inhibitors of mutant epidermal growth factor receptor tyrosine kinase” (Bioorg Med Chem Lett, 2016) are described below.

The target in experiment [1] is Dual specificity tyrosine-phosphorylation-regulated kinase 4 (Homo sapiens) (UniProt Q9NR20). The experiment is described as follows: Inhibition of DYRK4 (unknown origin) at 100 nM.
Experiment [2] addresses MAP kinase-interacting serine/threonine-protein kinase 2 (Homo sapiens) (UniProt Q9HBH9). The experiment is described as follows: Inhibition of MKNK2 (unknown origin) at 100 nM.
Experiment [3] concerns the target Maternal embryonic leucine zipper kinase (Homo sapiens) (UniProt Q14680). The experiment is described as follows: Inhibition of MELK (unknown origin) at 100 nM.
Experiment [4] concerns the target Tyrosine-protein kinase receptor UFO (Homo sapiens) (UniProt P30530). The experiment is described as follows: Inhibition of AXL (unknown origin) at 100 nM.
Experiment [5] addresses Protein kinase C iota type (Homo sapiens) (UniProt P41743). The experiment is described as follows: Inhibition of PKCiota (unknown origin) at 100 nM.
Experiment [6] addresses CDK9/cyclin T1 (Homo sapiens) (UniProt O60563+P50750). Briefly: Inhibition of CDK9/cyclinT1 (unknown origin) at 100 nM. Format: protein-complex assay.
Experiment [7] deals with Serine/threonine-protein kinase 17A (Homo sapiens) (UniProt Q9UEE5). The experiment is described as follows: Inhibition of DRAK1 (unknown origin) at 100 nM.
The target in experiment [8] is Tyrosine-protein kinase ABL2 (Homo sapiens) (UniProt P42684). The experiment is described as follows: Inhibition of ARG (unknown origin) at 100 nM.
Experiment [9] has as its target Serine/threonine-protein kinase D3 (Homo sapiens) (UniProt O94806). Briefly: Inhibition of PKD3 (unknown origin) at 100 nM.
In experiment [10] the target is Serine/threonine-protein kinase 26 (Homo sapiens) (UniProt Q9P289). The experiment is described as follows: Inhibition of MST4 (unknown origin) at 100 nM.
Experiment [11] addresses Myotonin-protein kinase (Homo sapiens) (UniProt Q09013). Briefly: Inhibition of DMPK (unknown origin) at 100 nM.
Experiment [12] deals with Serine/threonine-protein kinase NLK (Homo sapiens) (UniProt Q9UBE8). The experiment is described as follows: Inhibition of NLK (unknown origin) at 100 nM.
For experiment [13], the target named is Ribosomal protein S6 kinase alpha-5 (Homo sapiens) (UniProt O75582). The experiment is described as follows: Inhibition of MSK1 (unknown origin) at 100 nM.
Experiment [14] concerns the target Misshapen-like kinase 1 (Homo sapiens) (UniProt Q8N4C8). The experiment is described as follows: Inhibition of MINK1 (unknown origin) at 100 nM.
Experiment [15] concerns the target TGF-beta receptor type-1 (Homo sapiens) (UniProt P36897). The experiment is described as follows: Inhibition of TGFBR1 (unknown origin) at 100 nM.
Experiment [16] addresses Calcium/calmodulin-dependent protein kinase type 1 (Homo sapiens) (UniProt Q14012). The experiment is described as follows: Inhibition of CaMKI (unknown origin) at 100 nM.
Experiment [17] has as its target Eukaryotic elongation factor 2 kinase (Homo sapiens) (UniProt O00418). Briefly: Inhibition of EEF2K (unknown origin) at 100 nM.
Experiment [18] has as its target Protein kinase C beta type (Homo sapiens) (UniProt P05771). Briefly: Inhibition of PKCbeta2 (unknown origin) at 100 nM.
In experiment [19] the target is RAC-gamma serine/threonine-protein kinase (Homo sapiens) (UniProt Q9Y243). Briefly: Inhibition of AKT3 (unknown origin) at 100 nM.
In experiment [20] the target is Serine/threonine-protein kinase MRCK beta (Homo sapiens) (UniProt Q9Y5S2). Briefly: Inhibition of MRCKbeta (unknown origin) at 100 nM.
Serine/threonine-protein kinase MRCK beta (Homo sapiens), sequence (Q9Y5S2 whole entry): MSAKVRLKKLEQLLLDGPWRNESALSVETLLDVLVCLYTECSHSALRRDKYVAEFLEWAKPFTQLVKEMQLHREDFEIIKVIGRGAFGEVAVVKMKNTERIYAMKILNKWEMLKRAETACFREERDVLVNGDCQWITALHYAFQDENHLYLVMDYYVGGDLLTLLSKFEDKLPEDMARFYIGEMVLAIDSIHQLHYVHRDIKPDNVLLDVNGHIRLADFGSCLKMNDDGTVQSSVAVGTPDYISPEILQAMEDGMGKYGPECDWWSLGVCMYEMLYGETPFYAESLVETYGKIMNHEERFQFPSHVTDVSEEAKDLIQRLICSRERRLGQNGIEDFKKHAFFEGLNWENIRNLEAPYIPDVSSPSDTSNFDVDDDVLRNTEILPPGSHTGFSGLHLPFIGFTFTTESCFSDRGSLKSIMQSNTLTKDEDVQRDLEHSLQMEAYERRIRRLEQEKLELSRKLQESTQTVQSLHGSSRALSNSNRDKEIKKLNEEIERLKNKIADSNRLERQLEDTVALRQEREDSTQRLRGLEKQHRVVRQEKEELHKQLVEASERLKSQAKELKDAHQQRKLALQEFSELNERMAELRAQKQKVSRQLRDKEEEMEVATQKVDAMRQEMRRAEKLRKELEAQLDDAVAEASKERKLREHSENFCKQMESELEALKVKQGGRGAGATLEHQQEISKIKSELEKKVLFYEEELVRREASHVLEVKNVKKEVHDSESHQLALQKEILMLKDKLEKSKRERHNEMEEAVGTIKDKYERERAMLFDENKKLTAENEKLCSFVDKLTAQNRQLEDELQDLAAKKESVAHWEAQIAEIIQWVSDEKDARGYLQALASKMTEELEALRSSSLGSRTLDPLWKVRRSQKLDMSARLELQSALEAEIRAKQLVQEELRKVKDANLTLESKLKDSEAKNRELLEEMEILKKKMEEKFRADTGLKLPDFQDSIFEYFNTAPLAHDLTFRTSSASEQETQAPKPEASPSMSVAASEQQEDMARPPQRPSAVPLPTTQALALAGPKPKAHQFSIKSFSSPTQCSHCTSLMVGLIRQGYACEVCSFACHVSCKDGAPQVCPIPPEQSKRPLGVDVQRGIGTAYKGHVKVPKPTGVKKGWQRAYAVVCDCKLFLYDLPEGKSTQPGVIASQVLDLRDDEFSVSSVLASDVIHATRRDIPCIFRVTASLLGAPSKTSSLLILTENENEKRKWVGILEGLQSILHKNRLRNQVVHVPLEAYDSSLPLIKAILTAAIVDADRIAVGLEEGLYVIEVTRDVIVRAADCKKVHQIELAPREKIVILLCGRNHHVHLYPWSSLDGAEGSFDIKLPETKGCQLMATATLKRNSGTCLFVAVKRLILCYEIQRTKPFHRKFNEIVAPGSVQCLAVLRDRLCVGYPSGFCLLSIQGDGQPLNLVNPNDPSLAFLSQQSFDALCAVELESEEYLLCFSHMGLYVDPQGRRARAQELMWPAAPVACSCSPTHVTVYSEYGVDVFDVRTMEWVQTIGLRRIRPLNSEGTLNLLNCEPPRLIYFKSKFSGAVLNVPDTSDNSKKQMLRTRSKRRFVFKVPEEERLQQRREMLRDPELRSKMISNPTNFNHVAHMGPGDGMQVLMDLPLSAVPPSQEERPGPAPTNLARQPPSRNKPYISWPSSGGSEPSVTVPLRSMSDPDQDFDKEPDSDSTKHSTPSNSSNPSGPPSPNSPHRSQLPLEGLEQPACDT
In experiment [21] the target is Ribosomal protein S6 kinase alpha-3 (Homo sapiens) (UniProt P51812). The experiment is described as follows: Inhibition of RSK2 (unknown origin) at 100 nM.
Ribosomal protein S6 kinase alpha-3 (Homo sapiens), sequence (P51812 whole entry): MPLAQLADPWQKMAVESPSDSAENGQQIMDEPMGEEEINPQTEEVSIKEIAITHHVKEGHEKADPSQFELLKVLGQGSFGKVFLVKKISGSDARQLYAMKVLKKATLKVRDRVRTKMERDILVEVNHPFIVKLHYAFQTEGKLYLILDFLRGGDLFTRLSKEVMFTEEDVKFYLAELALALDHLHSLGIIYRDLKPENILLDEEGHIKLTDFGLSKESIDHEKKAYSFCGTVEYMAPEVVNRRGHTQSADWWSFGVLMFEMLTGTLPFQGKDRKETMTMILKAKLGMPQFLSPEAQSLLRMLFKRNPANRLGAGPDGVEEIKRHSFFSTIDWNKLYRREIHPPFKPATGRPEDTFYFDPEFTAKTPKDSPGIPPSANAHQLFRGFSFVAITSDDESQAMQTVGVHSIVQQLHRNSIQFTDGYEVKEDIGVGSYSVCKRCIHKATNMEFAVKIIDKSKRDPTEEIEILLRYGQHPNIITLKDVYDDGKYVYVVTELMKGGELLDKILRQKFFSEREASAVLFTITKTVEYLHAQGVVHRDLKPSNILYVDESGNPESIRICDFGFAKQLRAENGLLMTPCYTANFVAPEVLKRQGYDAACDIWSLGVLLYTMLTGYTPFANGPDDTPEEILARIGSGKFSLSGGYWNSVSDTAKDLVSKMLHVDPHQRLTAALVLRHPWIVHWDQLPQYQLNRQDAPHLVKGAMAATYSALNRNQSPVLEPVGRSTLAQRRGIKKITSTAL
The target of experiment [22] is Ribosomal protein S6 kinase alpha-4 (Homo sapiens) (UniProt O75676). The experiment is described as follows: Inhibition of MSK2 (unknown origin) at 100 nM.
Experiment [23] deals with Focal adhesion kinase 1 (Homo sapiens) (UniProt Q05397). Briefly: Inhibition of FAK (unknown origin) at 100 nM.
Experiment [24] has as its target Glycogen synthase kinase-3 alpha (Homo sapiens) (UniProt P49840). The experiment is described as follows: Inhibition of GSK3aplha (unknown origin) at 100 nM.
In experiment [25] the target is Cyclin-dependent kinase 5/CDK5 activator 1 (Homo sapiens) (UniProt Q00535+Q15078). Briefly: Inhibition of CDK5/p35 (unknown origin) at 100 nM. Format: protein-complex assay.
Experiment [26] deals with Tyrosine-protein kinase JAK3 (Homo sapiens) (UniProt P52333). Briefly: Inhibition of JAK3 (unknown origin) at 100 nM.
Experiment [27] addresses Tyrosine-protein kinase Fer (Homo sapiens) (UniProt P16591). Briefly: Inhibition of FER (unknown origin) at 100 nM.
Experiment [28] concerns the target Aurora kinase C (Homo sapiens) (UniProt Q9UQB9). The experiment is described as follows: Inhibition of Aurora C (unknown origin) at 100 nM.
Experiment [29] addresses Activin receptor type-1B (Homo sapiens) (UniProt P36896). Briefly: Inhibition of ACVR1B (unknown origin) at 100 nM.
For experiment [30], the target named is Mitogen-activated protein kinase 12 (Homo sapiens) (UniProt P53778). The experiment is described as follows: Inhibition of p38gamma(unknown origin) at 100 nM.
Experiment [31] deals with Fibroblast growth factor receptor 4 (Homo sapiens) (UniProt P22455). Briefly: Inhibition of FGFR4 (unknown origin) at 100 nM.
Experiment [32] deals with Mitogen-activated protein kinase kinase kinase 2 (Homo sapiens) (UniProt Q9Y2U5). Briefly: Inhibition of MEKK2 (unknown origin) at 100 nM.
The target of experiment [33] is Serine/threonine-protein kinase TAO3 (Homo sapiens) (UniProt Q9H2K8). Briefly: Inhibition of TAO3 (unknown origin) at 100 nM.
Serine/threonine-protein kinase TAO3 (Homo sapiens), sequence (Q9H2K8 whole entry): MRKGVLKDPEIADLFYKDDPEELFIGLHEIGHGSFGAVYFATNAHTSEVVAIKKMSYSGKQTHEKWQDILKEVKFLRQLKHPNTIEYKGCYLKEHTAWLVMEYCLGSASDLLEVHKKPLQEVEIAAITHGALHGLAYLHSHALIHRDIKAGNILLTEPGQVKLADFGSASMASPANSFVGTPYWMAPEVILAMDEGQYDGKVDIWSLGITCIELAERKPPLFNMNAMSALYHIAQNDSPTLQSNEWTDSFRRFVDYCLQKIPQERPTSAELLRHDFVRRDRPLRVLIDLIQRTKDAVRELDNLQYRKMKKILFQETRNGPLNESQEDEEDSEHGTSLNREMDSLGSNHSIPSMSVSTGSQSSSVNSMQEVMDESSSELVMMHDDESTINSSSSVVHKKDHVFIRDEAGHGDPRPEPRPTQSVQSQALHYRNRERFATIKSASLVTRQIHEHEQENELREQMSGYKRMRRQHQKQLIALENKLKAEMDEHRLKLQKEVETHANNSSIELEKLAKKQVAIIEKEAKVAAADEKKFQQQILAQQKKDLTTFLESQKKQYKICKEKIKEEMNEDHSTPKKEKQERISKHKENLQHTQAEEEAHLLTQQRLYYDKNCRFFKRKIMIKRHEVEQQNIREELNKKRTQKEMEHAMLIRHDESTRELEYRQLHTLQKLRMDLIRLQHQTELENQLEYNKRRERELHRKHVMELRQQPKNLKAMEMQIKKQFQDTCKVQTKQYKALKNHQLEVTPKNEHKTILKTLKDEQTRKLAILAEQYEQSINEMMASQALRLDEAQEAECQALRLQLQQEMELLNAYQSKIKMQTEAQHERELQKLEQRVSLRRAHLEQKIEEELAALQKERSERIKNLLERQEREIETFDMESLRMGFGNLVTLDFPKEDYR
For experiment [34], the target named is BDNF/NT-3 growth factors receptor (Homo sapiens) (UniProt Q16620). Briefly: Inhibition of TRKB (unknown origin) at 100 nM.
In experiment [35] the target is MAP/microtubule affinity-regulating kinase 3 (Homo sapiens) (UniProt P27448). The experiment is described as follows: Inhibition of MARK3 (unknown origin) at 100 nM.
Experiment [36] addresses Ephrin type-A receptor 8 (Homo sapiens) (UniProt P29322). The experiment is described as follows: Inhibition of EPHA8 (unknown origin) at 100 nM.
The target of experiment [37] is Beta-adrenergic receptor kinase 1 (Homo sapiens) (UniProt P25098). Briefly: Inhibition of GRK2 (unknown origin) at 100 nM.
Experiment [38] addresses G protein-coupled receptor kinase 5 (Homo sapiens) (UniProt P34947). Briefly: Inhibition of GRK5 (unknown origin) at 100 nM.
Experiment [39] has as its target Tyrosine-protein kinase Blk (Homo sapiens) (UniProt P51451). Briefly: Inhibition of BLK (unknown origin) at 100 nM.
For experiment [40], the target named is Dual specificity mitogen-activated protein kinase kinase 6 (Homo sapiens) (UniProt P52564). The experiment is described as follows: Inhibition of MKK6 (unknown origin) at 100 nM.
Experiment [41] concerns the target Phosphatidylinositol 3-kinase catalytic subunit type 3 (Homo sapiens) (UniProt Q8NEB9). The experiment is described as follows: Inhibition of PI3KC3/hVPS34 (unknown origin) at 100 nM.
The target in experiment [42] is Serine/threonine-protein kinase PAK 5 (Homo sapiens) (UniProt Q9P286). Briefly: Inhibition of PAK7 (unknown origin) at 100 nM.
For experiment [43], the target named is Mitogen-activated protein kinase kinase kinase kinase 2 (Homo sapiens) (UniProt Q12851). The experiment is described as follows: Inhibition of GCK (unknown origin) at 100 nM.

TGF-beta receptor type-1 (Homo sapiens), sequence (P36897 whole entry): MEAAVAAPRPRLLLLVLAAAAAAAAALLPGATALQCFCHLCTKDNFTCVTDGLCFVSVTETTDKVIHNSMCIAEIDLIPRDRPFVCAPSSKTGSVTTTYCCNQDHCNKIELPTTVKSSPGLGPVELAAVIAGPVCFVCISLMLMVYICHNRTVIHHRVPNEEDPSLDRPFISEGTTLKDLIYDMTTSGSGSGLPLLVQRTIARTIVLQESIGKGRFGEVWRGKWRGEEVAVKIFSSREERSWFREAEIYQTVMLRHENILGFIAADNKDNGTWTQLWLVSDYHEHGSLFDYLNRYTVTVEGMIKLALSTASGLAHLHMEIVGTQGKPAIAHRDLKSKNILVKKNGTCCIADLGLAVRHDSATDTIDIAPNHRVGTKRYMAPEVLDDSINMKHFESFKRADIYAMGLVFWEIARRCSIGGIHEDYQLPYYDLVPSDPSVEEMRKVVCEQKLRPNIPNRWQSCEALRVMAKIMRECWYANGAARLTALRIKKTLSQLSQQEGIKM
Maternal embryonic leucine zipper kinase (Homo sapiens), sequence (Q14680 whole entry, looked up): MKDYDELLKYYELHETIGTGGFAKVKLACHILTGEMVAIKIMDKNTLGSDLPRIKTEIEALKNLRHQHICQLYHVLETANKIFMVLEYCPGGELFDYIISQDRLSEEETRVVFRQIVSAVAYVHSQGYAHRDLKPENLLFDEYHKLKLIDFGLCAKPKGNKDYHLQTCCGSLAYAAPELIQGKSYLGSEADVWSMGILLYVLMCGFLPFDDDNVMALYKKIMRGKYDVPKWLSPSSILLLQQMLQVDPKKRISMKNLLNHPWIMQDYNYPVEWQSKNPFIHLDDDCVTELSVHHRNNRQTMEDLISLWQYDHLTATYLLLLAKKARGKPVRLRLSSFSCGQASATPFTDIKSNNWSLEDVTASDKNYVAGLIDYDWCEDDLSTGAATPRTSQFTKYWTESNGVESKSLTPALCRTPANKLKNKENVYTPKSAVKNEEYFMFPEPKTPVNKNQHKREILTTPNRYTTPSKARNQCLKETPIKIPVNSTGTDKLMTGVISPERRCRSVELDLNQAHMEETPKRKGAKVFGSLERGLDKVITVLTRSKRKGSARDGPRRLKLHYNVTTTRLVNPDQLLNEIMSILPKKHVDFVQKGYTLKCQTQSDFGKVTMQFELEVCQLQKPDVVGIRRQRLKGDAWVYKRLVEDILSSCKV
Aurora kinase C (Homo sapiens), sequence (Q9UQB9 whole entry): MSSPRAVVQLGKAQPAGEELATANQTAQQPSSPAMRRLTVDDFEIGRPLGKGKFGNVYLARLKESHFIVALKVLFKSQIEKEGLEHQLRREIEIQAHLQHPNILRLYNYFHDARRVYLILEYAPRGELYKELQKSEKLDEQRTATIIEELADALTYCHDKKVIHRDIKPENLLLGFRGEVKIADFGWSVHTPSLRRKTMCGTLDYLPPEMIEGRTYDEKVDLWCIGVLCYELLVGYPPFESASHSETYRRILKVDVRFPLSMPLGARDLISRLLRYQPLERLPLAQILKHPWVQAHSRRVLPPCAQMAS

Regarding `CC1(C)OCc2c(Nc3n[nH]c4ccccc34)nc(-c3cn[nH]c3)nc21`, the inhibition (usually the change of the read-out against control, counted positive when it falls) in experiment [1] was 0.7%; in experiment [2], -2.3%; in experiment [3] it was 12.3%; in experiment [4] it was -2.2%; in experiment [5], -1.5%; in experiment [6], -6.1%. Also, the inhibition in experiment [7] was 1.1%; in [8], 69.5%; in experiment [9], 19%; in experiment [10], 0.2%; in experiment [11], 3.3%; in [12], -0.6%. In addition, the inhibition in experiment [13] is 11.5%; in [14], 12.9%; in experiment [15], 97.9%; in experiment [16], 4.5%; in experiment [17], 7.5%; in experiment [18] it was 11.4%. In addition, the inhibition in [19] was 10.4%; in [20], -3.9%; in experiment [21], -5.9%; in experiment [22] it was 15.2%; in [23], 7.2%; in [24], 30.8%. For the same compound, the inhibition in experiment [25] stood at 3.1%; in [26] it was 2.7%; in [27], 6.9%; in experiment [28] it was 1.2%; in [29] it was 70.7%; in experiment [30], 10.3%. In addition, the inhibition in [31] is 14.7%; in experiment [32] it was 43.6%; in [33] it was 6.2%; in experiment [34], -1.4%; in experiment [35], 8.4%; in experiment [36], 24.9%. The inhibition in [37] was -0.6%; in [38] it was -1.4%; in experiment [39] it was 67.7%; in [40], -0.9%; in [41], 7.4%; in [42], -1.8%.

As for `CC1(C)OCc2c(Nc3n[nH]c4c(Cl)cccc34)nc(-c3cn[nH]c3)nc21`, the inhibition in experiment [43] is 6.4%.
